Test results as given in the supplement of paper PMC10307832.

Key:
Experiment in all cases: relative viability (nuclei count vs DMSO), 5 days (fraction); higher = more cells survive
Pictilisib + Trametinib = compound: CS(=O)(=O)N1CCN(Cc2cc3nc(-c4cccc5[nH]ncc45)nc(N4CCOCC4)c3s2)CC1 [Pictilisib] + CC(=O)Nc1cccc(-n2c(=O)n(C3CC3)c(=O)c3c(Nc4ccc(I)cc4F)n(C)c(=O)c(C)c32)c1 [Trametinib] (partner 0.02 µM)
Procedure, shortened: (§1)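 Each reported value is a median over duplicate plates. It expresses relative viability: treated-well nuclei count divided by vehicle-well nuclei count. Lung cancer cell lines in 1536-well plates were dosed by pin tool a day after seeding, alone with one drug or with a fixed anchor-drug dose plus five library-drug doses (not always all listed) in √10 steps, and nuclei were counted after 5 days.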

Pictilisib + OSI-027 = compound: CS(=O)(=O)N1CCN(Cc2cc3nc(-c4cccc5[nH]ncc45)nc(N4CCOCC4)c3s2)CC1 [Pictilisib] + COc1cccc2cc(-c3nc([C@H]4CC[C@H](C(=O)O)CC4)n4ncnc(N)c34)[nH]c12 [OSI-027] (partner 0.5 µM)
Procedure, shortened: as §1

MK-2206 + Trametinib = compound: NC1(c2ccc(-c3nc4ccn5c(=O)[nH]nc5c4cc3-c3ccccc3)cc2)CCC1 [MK-2206] + CC(=O)Nc1cccc(-n2c(=O)n(C3CC3)c(=O)c3c(Nc4ccc(I)cc4F)n(C)c(=O)c(C)c32)c1 [Trametinib] (partner 0.02 µM)
Procedure, shortened: as §1

MK-2206 + Bortezomib = compound: NC1(c2ccc(-c3nc4ccn5c(=O)[nH]nc5c4cc3-c3ccccc3)cc2)CCC1 [MK-2206] + CC(C)C[C@H](NC(=O)[C@H](Cc1ccccc1)NC(=O)c1cnccn1)B(O)O [Bortezomib] (partner 0.002 µM)
Procedure, shortened: as §1

MK-2206 + Decitabine = compound: NC1(c2ccc(-c3nc4ccn5c(=O)[nH]nc5c4cc3-c3ccccc3)cc2)CCC1 [MK-2206] + Nc1ncn([C@H]2C[C@H](O)[C@@H](CO)O2)c(=O)n1 [Decitabine] (partner 2 µM)
Procedure, shortened: as §1

Cell Line	relative viability (Pictilisib + Trametinib; first compound 0.02 µM)	relative viability (Pictilisib + Trametinib; first compound 0.06325 µM)	relative viability (Pictilisib + Trametinib; first compound 0.6325 µM)	relative viability (Pictilisib + Trametinib; first compound 2 µM)	relative viability (Pictilisib + OSI-027; first compound 0.02 µM)	relative viability (Pictilisib + OSI-027; first compound 0.06325 µM)	relative viability (Pictilisib + OSI-027; first compound 0.6325 µM)	relative viability (Pictilisib + OSI-027; first compound 2 µM)	relative viability (MK-2206 + Trametinib; first compound 0.01 µM)	relative viability (MK-2206 + Trametinib; first compound 0.03162 µM)	relative viability (MK-2206 + Trametinib; first compound 0.3162 µM)	relative viability (MK-2206 + Trametinib; first compound 1 µM)	relative viability (MK-2206 + Bortezomib; first compound 0.01 µM)	relative viability (MK-2206 + Bortezomib; first compound 0.03162 µM)	relative viability (MK-2206 + Bortezomib; first compound 0.3162 µM)	relative viability (MK-2206 + Bortezomib; first compound 1 µM)	relative viability (MK-2206 + Decitabine; first compound 0.01 µM)	relative viability (MK-2206 + Decitabine; first compound 0.03162 µM)	relative viability (MK-2206 + Decitabine; first compound 0.3162 µM)	relative viability (MK-2206 + Decitabine; first compound 1 µM)
NCI-H1975	0.326	0.369	0.194	0.142	0.867	0.574	0.234	0.212	0.305	0.352	0.261	0.371	0.464	0.34	0.28	0.261	0.387	0.346	0.36	0.323
NCI-H1666	0.802	0.892	0.622	0.575	0.877	0.858	0.636	0.477	0.925	0.79	0.807	0.892	0.832	0.801	0.613	0.5	0.589	0.703	0.765	0.684
PC-3 [JPC-3]	0.727	0.658	0.586	0.433	0.591	0.718	0.621	0.433	0.686	0.804	0.599	0.735	0.812	0.94	0.841	0.805	0.806	0.807	0.855	0.852
NCI-H1755	0.821	0.667	0.718	0.327	0.684	0.666	0.41	0.279	0.756	0.768	0.671	0.699	0.96	0.99	0.838	0.689	0.724	0.71	0.726	0.638
RERF-LC-KJ	0.828	0.859	0.708	0.56	0.531	0.559	0.402	0.371	0.808	0.903	0.725	0.718	1.06	1.12	0.876	1.02	0.788	0.677	0.599	0.62
NCI-H647	0.554	0.464	0.307	0.126	0.598	0.709	0.403	0.182	0.457	0.473	0.429	0.364	1.06	1.27	0.959	0.644	0.39	0.365	0.414	0.408
BEN	1.02	0.953	0.962	0.636	0.309	0.293	0.286	0.273	1.17	1.2	1.23	1.05	0.775	0.821	1	0.528	0.909	0.673	0.679	0.643
201T	0.737	0.686	0.659	0.585	0.757	0.683	0.503	0.281	0.688	0.753	0.743	0.724	1.06	1.13	1.17	1.16	0.817	0.892	0.882	0.842
LC-2-ad	0.892	0.945	0.73	0.629	0.881	0.781	0.475	0.396	0.924	0.886	0.933	0.927	0.971	1.09	1.01	0.91	0.748	0.79	0.859	0.881
LCLC-97TM1	0.204	0.226	0.142	0.0739	0.4	0.488	0.301	0.253	0.195	0.205	0.191	0.206	0.415	0.593	0.39	0.44	0.242	0.259	0.26	0.206
NCI-H1915	0.322	0.295	0.285	0.244	0.618	0.616	0.639	0.533	0.3	0.315	0.282	0.293	0.969	1.02	0.983	0.862	0.263	0.252	0.264	0.251
NCI-H3122	0.201	0.202	0.161	0.122	0.909	0.786	0.435	0.172	0.237	0.234	0.198	0.211	1.03	0.942	1.09	0.973	0.38	0.416	0.396	0.426
NCI-H1650	0.595	0.662	0.506	0.382	0.677	0.713	0.368	0.207	0.54	0.649	0.612	0.643	0.196	0.195	0.207	0.2	0.465	0.419	0.441	0.469
NCI-H1993	0.543	0.469	0.523	0.488	0.514	0.47	0.592	0.646	0.61	0.422	0.43	0.419	1.08	1.2	0.769	0.613	0.533	0.585	0.516	0.491
NCI-H2405	0.719	0.515	0.355	0.254	0.548	0.569	0.486	0.278	0.697	0.682	0.668	0.533	0.96	1.1	0.958	0.987	0.766	0.788	0.72	0.74
NCI-H661	0.532	0.589	0.469	0.356	0.687	0.682	0.499	0.261	0.573	0.712	0.603	0.503	0.857	0.864	0.862	0.989	0.538	0.574	0.591	0.528
